Reference: patent US7745426B2, “Compositions and methods for reducing the risk of epileptic occurrence and/or for treatment of seizure disorders” (D-Pharm Ltd., priority 2003, dated 2010)
Where a name gives a salt, the structure may show the parent alone.

Key:
Format in all cases: in vivo
[1] = test system: epilepsy-prone (EP) subline of BALB/c mice, PTZ-induced convulsions; assay: PTZ-induced convulsive reaction in genetically epilepsy-prone (EP) mice, compounds given i.p.; conditions: for anticonvulsive effect against PTZ-induced convulsive reaction (FIG. 1): 10 mg/kg i.p. 30 minutes prior to PTZ i.p., recorded 30 min
Protocol: The animal model used is epilepsy-prone (EP) subline of mice that was selectively bred from a strain of BALB/c mice (Dolina et al. in Epilepsia (1993) 43: 33-42).
EP mice were subjected to seizure induction by intraperitoneal (i.p.) injection of pentylenetetrazol (PTZ) 50-60 mg/kg dissolved in saline. The EP animals were i.p. treated with the tested compound(s) 10 to 60 minutes prior to the PTZ injection.
The tested compounds were the following: • 1) NC-001 10 mg/kg • 2) Pyridoxine hydrochloride (=Vitamin B6) 10 mg/kg • 3) GABA 10 mg/kg • 4) Separately injected Vitamin B6 and GABA, 10 mg/kg each. A group of EP animals injected with PTZ only, with no further treatment, served as a control group.
The intensity of the PTZ-induced convulsive reaction for each group was evaluated in scores according to the following scale:
(§1) Intensity of PTZ-induced Convulsive Reaction in Scores • 1. A few myoclonic jerks (less than 10) • 2. Less than 20 jerks • 3. Less than 30 jerks • 4. 30-40 jerks/jerks and jumps/short partial convulsions. • 5. Uninterrupted jerks/series of jerks and jumps/repeated partial convulsions • 5.5 Abortive generalized convulsions • 6. Single generalized convulsive attack • 7. Series of jerks, jumps & single generalized convulsive attack; single generalized convulsions with further motor excitation • 7.5 Severe prolonged generalized convulsions • 8. Repeated generalized convulsions • 9. Series of jerks/jumps & repeated convulsions • 10. Status epilepticus • 12. Lethal convulsions
In each group of EP animals, convulsive reactions were recorded during the first 30 minutes following administration of the seizure inducer.
Genetically epilepsy-prone (EP) BALB/c mice, 3-5 animals in a group, were i.p. administered with either 5 mg/kg, 7.5 mg/kg or 10 mg/kg of NC-001 thirty minutes prior to i.p. injection of PTZ (60 mg/kg). The numbers of seizures were then recorded for each animal during 30 minutes following the PTZ injection. The intensity of convulsive reaction was scored for each of the treatment groups.

[2] = test system: epilepsy-prone (EP) mice, PTZ-induced convulsions; assay: PTZ-induced convulsive reaction in EP mice, NC-001 orally administered; conditions: 30 mg/kg orally 30 min prior to PTZ 50 mg/kg i.p.; four female EP mice vs eight vehicle
From the text: as §1
In order to test the ability of the vitamin B6-GABA conjugated compound to cross the GI barrier, epilepsy-prone (EP) mice were orally administered with NC-001.
A group of 12 female EP mice were i.p. treated with 50 mg/kg PTZ to induce seizures. Thirty minutes prior to PTZ administration, NC-001 at the dose of 30 mg/kg was orally administered to four of the animals (=treated group), the other eight animals were treated with vehicle only and served as a control group. All twelve animals were scored, during 30 minutes following i.p. PTZ administration, for intensity of convulsive reactions (see table of convulsive reaction scores as appear above in Example 4).

[3] = test system: audiogenic sensitive rats, sound-induced convulsions; assay: Sound-induced convulsions in audiogenic sensitive rats chronically treated with PHT with or without pyridoxine; conditions: 100 db sound
From the text: Phenyloin (PHT) is prescribed for medication of generalized […] generalized convulsions, complex partial seizures and simple partial seizures. […] In the experiments, intensity of 100 db sound stimulation was used. […] The second group included pyridoxine-untreated rats. […] Eleven rats were used in each group.

[4] = EP mice, 10 mg/kg i.p. 30 minutes prior to PTZ, six tested mice

Q: How did the “anticonvulsive effect against PTZ-induced convulsive reaction (FIG. 1)” value (“anticonvulsive effect” for short) ([1]; EP mice) turn out when `NCCCC(=O)O` [GABA, γ-aminobutyric acid, reference compound] was run?
A: did not show any anticonvulsive effect

Q: Which “EP mice that exhibited generalized convulsions” value ([1]; 5 mg/kg i.p. 30 min prior to PTZ 60 mg/kg i.p., FIG. 2) does the source give for `Cc1ncc(COC(=O)CCCN)c(CO)c1O` [NC-001, [5-Hydroxy-6-methyl-4-(hydroxymethyl)-pyrid-3-yl]methyl-4-aminobutyrate, dihydrochloride] here?
A: two of the four

Q: What about the “effect on generalized PTZ-induced convulsions” value ([1]; 7.5 mg/kg i.p. 30 min prior to PTZ 60 mg/kg i.p., three EP mice, numerous jerks in all, FIG. 2) of the same compound?
A: prevented generalized PTZ-induced convulsions in all three treated EP mice

Q: What about the “effect on generalized convulsive reactions” value ([1]; 10 mg/kg i.p. 30 min prior to PTZ 60 mg/kg i.p., single jerks in one mouse, FIG. 2) of the same compound?
A: completely prevented generalized convulsive reactions

Q: And the “dose dependence of anti-convulsive effect” value ([1]; 5, 7.5, 10 mg/kg i.p., PTZ 60 mg/kg, FIG. 2)?
A: dose-dependent anti-convulsive protective effect

Q: And the “anticonvulsive effect” value ([1]; EP mice)?
A: almost a complete protection against the convulsive symptoms

Q: And the “animals that had only few convulsive jerks” value [1, 4]?
A: two

Q: And the “mice that did not show any convulsive reaction” value [1, 4]?
A: Four out of the six

Q: And the “protective effect, intensity of convulsive reactions (FIG. 3)” value [2]?
A: significant protective effect

Q: Which “number of tests with sound-induced convulsive reactions” value ([3]; 22 tests per group, chronic PHT, days 13 and 14) does the source give for `O=C1NC(=O)C(c2ccccc2)(c2ccccc2)N1` [PHT, 5,5-Diphenyl-2,4-imidazolidinedione] here?
A: 6

Q: And the “tests resulting in sound-induced convulsions (percent of 22 tests)” value ([3]; PHT 75 mg/kg then 12 x 50 mg/kg once a day, tested days 13 and 14, 11 rats per group)?
A: 27.3%

Q: How did the “anticonvulsive effect” value ([1]; EP mice) turn out when `Cc1ncc(CO)c(CO)c1O.Cl` [Vitamin B6, Pyridoxine hydrochloride, reference compound] was run?
A: some protection against PTZ-induced generalized convulsions
